Some test systems named below: OVCAR-8; CAKI-1; HOP-62; NCI-H23; TK-10; SK-MEL-5; SF-268; HL-60; CCRF-CEM; U-251; SR; HOP-92; OVCAR-4; LOX IMVI; SF-295; A498; MDA-MB-435; MOLT-4; NCI/ADR-RES; SN12C.
Assay in all cases: inhibition of tumour cell growth, NCI panel, 48 h

The results in this text go back to ChEMBL document CHEMBL1201862, “PubChem BioAssay data set” (2004).

Each structure is given as a SMILES string.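 Cells were grown in 96-well plates and exposed to each compound for 48 hours at five concentrations; endpoints were interpolated linearly between bracketing concentrations, or set to the highest concentration if not reached. GI50: concentration for 50% inhibition of growth.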 Activity calls are given as the source filed them. Rule as the data show it: active = GI50 up to about 1.1 µM and inactive = higher.

As to `Cc1ccc(-n2c(N)c(C#N)c3[nH]nc(N)c3c2=O)cc1`, the GI50 with OVCAR-8, in the assay with CAKI-1, in the assay with HOP-62, in the assay with NCI-H23, in the assay on TK-10 and in the assay on SK-MEL-5 was > 100 µM (inactive) each time. In addition, the GI50 is > 100 µM (inactive) in the assay with SF-268; > 100 µM (inactive) in the assay with HL-60; > 100 µM (inactive) in the assay with CCRF-CEM; > 100 µM (inactive) in the assay on U-251; > 10 µM (inactive) in the assay on SR; > 100 µM (inactive) in the assay with HOP-92. Moreover, the GI50 with OVCAR-4, in the assay with LOX IMVI, in the assay with SF-295, with A498, in the assay on MDA-MB-435 and with MOLT-4 was > 100 µM (inactive) each time. Also, in the assay on NCI/ADR-RES, the GI50 is > 100 µM (inactive).
As for `COc1cc2c(cc1OC(=O)c1cc3ccccc3[nH]1)N=C[C@@H]1CCCN1C2=O`, the GI50 with OVCAR-8 was 0.462 µM (active); in the assay with CAKI-1, 0.294 µM (active); with HOP-62, 0.363 µM (active); with NCI-H23 it was 0.37 µM (active); in the assay with TK-10, 0.355 µM (active); in the assay on SK-MEL-5 it was 0.175 µM (active). Further, the GI50 with SF-268 is 0.706 µM (active); with SN12C it was 0.221 µM (active); in the assay on CCRF-CEM, 0.255 µM (active); in the assay on U-251 it was 0.292 µM (active); in the assay on SR it was 0.174 µM (active); with HOP-92 it was 0.542 µM (active). Moreover, the GI50 with OVCAR-4 was 0.409 µM (active); in the assay on LOX IMVI, 0.332 µM (active); with SF-295 it was 1.03 µM (active); in the assay with A498, 0.219 µM (active); in the assay with MDA-MB-435, 0.316 µM (active); in the assay with MOLT-4 it was 0.18 µM (active). Also, in the assay with NCI/ADR-RES, the GI50 is 0.461 µM (active).
Consider `Cc1cn(C2CC(/[N+]([O-])=N\Nc3ccc([N+](=O)[O-])cc3)C(CO)O2)c(=O)[nH]c1=O` (configuration not stated), for which the GI50 with OVCAR-8, in the assay with CAKI-1, with HOP-62, in the assay with NCI-H23, in the assay with TK-10 and in the assay on SF-268 was > 100 µM (inactive) throughout. Further, the GI50 is > 100 µM (inactive) with SN12C; > 100 µM (inactive) in the assay with HL-60; > 100 µM (inactive) in the assay with CCRF-CEM; > 100 µM (inactive) with U-251; 4.62 µM (inactive) in the assay with SR; > 100 µM (inactive) with HOP-92. Besides, the GI50 was > 100 µM (inactive) in the assay on LOX IMVI; > 100 µM (inactive) in the assay on SF-295; > 100 µM (inactive) in the assay with A498; > 100 µM (inactive) with MDA-MB-435; 22.2 µM (inactive) with MOLT-4; > 100 µM (inactive) in the assay with NCI/ADR-RES.
On to `COC(=O)C1C(OC(=O)c2ccccc2)CC2CCC1N2C(N)=O` (configuration not stated), for which the GI50 in the assay with OVCAR-8, in the assay on CAKI-1, in the assay with HOP-62, in the assay on NCI-H23, with SK-MEL-5 and with SF-268 was > 100 µM (inactive) throughout. For the same compound, the GI50 with SN12C, in the assay with HL-60, with CCRF-CEM, in the assay on U-251, with SR and in the assay with HOP-92 was > 100 µM (inactive) throughout. The GI50 in the assay on OVCAR-4, with LOX IMVI, with SF-295, with A498, in the assay on MDA-MB-435 and in the assay on MOLT-4 was > 100 µM (inactive) in each case. Also, the GI50 in the assay with NCI/ADR-RES is > 100 µM (inactive).
As to `Cc1cc2nc(CC(C(F)(F)F)C(F)(F)F)oc2cc1C`, the GI50 with OVCAR-8 was 1.12 µM (active); in the assay with CAKI-1 it was 2.07 µM (inactive); with HOP-62 it was 3.48 µM (inactive); in the assay with NCI-H23, 1.37 µM (inactive); with TK-10, 5.21 µM (inactive); in the assay on SK-MEL-5, 4.32 µM (inactive). The GI50 is 2.49 µM (inactive) with SF-268; 1.03 µM (active) in the assay on SN12C; 0.968 µM (active) with HL-60; 0.016 µM (active) in the assay on CCRF-CEM; 3.15 µM (inactive) in the assay on U-251; 0.0276 µM (active) in the assay with SR. In addition, the GI50 was 7.5 µM (inactive) in the assay on HOP-92; 2.19 µM (inactive) in the assay on OVCAR-4; 0.209 µM (active) with LOX IMVI; 4.76 µM (inactive) in the assay on SF-295; 5.71 µM (inactive) in the assay with A498; 1.96 µM (inactive) with MDA-MB-435. The GI50 with NCI/ADR-RES is 1.71 µM (inactive).
With `O=C1N[C@@H]2c3c(csc3Br)C(=O)[C@@H]2O1`, the GI50 in the assay with OVCAR-8 was 22.2 µM (inactive); in the assay with CAKI-1, 20.8 µM (inactive); in the assay on HOP-62, 53.2 µM (inactive); with NCI-H23 it was 41.7 µM (inactive); with TK-10, 27.4 µM (inactive); with SK-MEL-5, > 100 µM (inactive). The GI50 in the assay with SF-268 was 27 µM (inactive); with SN12C it was 42.5 µM (inactive); in the assay with HL-60 it was 24.3 µM (inactive); with CCRF-CEM it was 15 µM (inactive); in the assay with U-251, 24.2 µM (inactive); with SR it was 26.1 µM (inactive). Moreover, the GI50 was 20.8 µM (inactive) in the assay on HOP-92; 19 µM (inactive) in the assay on LOX IMVI; 59.2 µM (inactive) in the assay with SF-295; > 100 µM (inactive) in the assay on A498; 19.9 µM (inactive) with MDA-MB-435; 19.9 µM (inactive) in the assay with MOLT-4. Besides, in the assay with NCI/ADR-RES, the GI50 is 96.4 µM (inactive).
`CCOC(=O)c1ccc(NCc2ccc3nc(OC)c(OC)nc3c2)cc1`: the GI50 in the assay on OVCAR-8 was 84.7 µM (inactive); with CAKI-1 it was > 100 µM (inactive); in the assay with HOP-62 it was > 100 µM (inactive); in the assay on NCI-H23, > 100 µM (inactive); in the assay on SK-MEL-5, > 100 µM (inactive); in the assay on SF-268, > 100 µM (inactive). Also, the GI50 with SN12C was > 100 µM (inactive); in the assay on HL-60, 47.8 µM (inactive); in the assay on CCRF-CEM it was > 100 µM (inactive); in the assay on U-251, > 100 µM (inactive); with SR, > 100 µM (inactive); in the assay on HOP-92 it was 58.3 µM (inactive). Also, the GI50 is 88.7 µM (inactive) in the assay with OVCAR-4; > 100 µM (inactive) in the assay with LOX IMVI; > 100 µM (inactive) with SF-295; > 100 µM (inactive) in the assay on A498; > 100 µM (inactive) in the assay on MDA-MB-435; > 100 µM (inactive) in the assay on MOLT-4. Moreover, the GI50 in the assay on NCI/ADR-RES is > 100 µM (inactive).
On to `O=C(Nc1ccccc1C(=O)O)C(=Cc1ccccc1O)NC(=O)c1ccccc1`, for which the GI50 in the assay with OVCAR-8, with CAKI-1, with HOP-62, in the assay on NCI-H23, in the assay on SK-MEL-5 and in the assay on SF-268 was > 100 µM (inactive) throughout. Moreover, the GI50 with SN12C, in the assay with HL-60, in the assay on CCRF-CEM, with U-251, in the assay with SR and with HOP-92 was > 100 µM (inactive) each time. Further, the GI50 in the assay on LOX IMVI is 58.9 µM (inactive); in the assay with SF-295, > 100 µM (inactive); in the assay with A498, > 100 µM (inactive); in the assay on MDA-MB-435, 32.4 µM (inactive); in the assay with MOLT-4 it was > 100 µM (inactive); in the assay on NCI/ADR-RES, > 100 µM (inactive).
Turning to `Nc1ccc(/C=C/c2ccc3cccnc3c2)cc1`, the GI50 in the assay on OVCAR-8 is > 100 µM (inactive); with CAKI-1 it was 90.8 µM (inactive); with HOP-62, > 100 µM (inactive); in the assay with NCI-H23 it was > 100 µM (inactive); in the assay with TK-10 it was > 100 µM (inactive); in the assay on SK-MEL-5, > 100 µM (inactive). The GI50 in the assay on SF-268 is > 100 µM (inactive); in the assay on SN12C, > 100 µM (inactive); with HL-60, 4.61 µM (inactive); in the assay on CCRF-CEM it was > 100 µM (inactive); in the assay on U-251, > 100 µM (inactive); in the assay with SR it was > 100 µM (inactive). Moreover, the GI50 with HOP-92, in the assay on LOX IMVI, with SF-295, in the assay on A498, in the assay with MDA-MB-435 and in the assay on MOLT-4 was > 100 µM (inactive) throughout. Moreover, the GI50 with NCI/ADR-RES was > 100 µM (inactive).
Consider `CC(=O)Nc1ccc(Nc2nc(=O)[nH]c(=O)[nH]2)cc1`, for which the GI50 in the assay with OVCAR-8, in the assay on CAKI-1, with HOP-62, in the assay on NCI-H23, in the assay with TK-10 and with SK-MEL-5 was > 100 µM (inactive) throughout. The GI50 in the assay with SF-268, with SN12C, with HL-60, in the assay with CCRF-CEM, with U-251 and with SR was > 100 µM (inactive) in each case. Moreover, the GI50 in the assay on HOP-92, in the assay with OVCAR-4, in the assay with LOX IMVI, in the assay on SF-295, with A498 and in the assay with MDA-MB-435 was > 100 µM (inactive) in each case. For the same compound, the GI50 with NCI/ADR-RES is > 100 µM (inactive).
For the compound `COC(=O)Nc1nc2cc(S(=O)(=O)n3nnc4ccccc43)ccc2[nH]1`, the GI50 in the assay with OVCAR-8 is > 100 µM (inactive); in the assay on CAKI-1 it was 54.2 µM (inactive); in the assay on HOP-62 it was 15.8 µM (inactive); with NCI-H23 it was 41.7 µM (inactive); with SK-MEL-5, > 100 µM (inactive); in the assay on SF-268, 21.5 µM (inactive). Besides, the GI50 was > 100 µM (inactive) in the assay with SN12C; 66.2 µM (inactive) in the assay on HL-60; > 100 µM (inactive) in the assay on CCRF-CEM; 26.6 µM (inactive) with U-251; 75.2 µM (inactive) with SR; 14.5 µM (inactive) in the assay with HOP-92. The GI50 in the assay with OVCAR-4 was > 100 µM (inactive); with LOX IMVI it was > 100 µM (inactive); with SF-295, 21.4 µM (inactive); in the assay with A498, 57 µM (inactive); in the assay on MDA-MB-435, > 100 µM (inactive); in the assay on MOLT-4, > 100 µM (inactive). Besides, the GI50 in the assay with NCI/ADR-RES was > 100 µM (inactive).
